Source: US12358910B2, “Heteroaromatic compounds as Vanin inhibitors” (Boehringer Ingelheim International GmbH, priority 2018, dated 2025)

Tests used:
[1] = biological target: T1, FLAG-tagged Vanin-1 (AA 22-493, T26I) (Homo sapiens, UniProt O95497, T26I); experiment: Vanin-1 enzymatic assay (pantothenic acid formation, RapidFire mass spectrometry); assay type: biochemical; details: 0.1 nM FLAG-tagged Vanin-1, 3 μM D-pantethine, room temperature; geometric mean in case of multiple measurements; read-out: VNN-1 IC50
T1 construct: FLAG-tagged Vanin-1 (AA 22-493, T26I, produced internally); FLAG; made in house
T1 sequence (O95497 22-493 T26I): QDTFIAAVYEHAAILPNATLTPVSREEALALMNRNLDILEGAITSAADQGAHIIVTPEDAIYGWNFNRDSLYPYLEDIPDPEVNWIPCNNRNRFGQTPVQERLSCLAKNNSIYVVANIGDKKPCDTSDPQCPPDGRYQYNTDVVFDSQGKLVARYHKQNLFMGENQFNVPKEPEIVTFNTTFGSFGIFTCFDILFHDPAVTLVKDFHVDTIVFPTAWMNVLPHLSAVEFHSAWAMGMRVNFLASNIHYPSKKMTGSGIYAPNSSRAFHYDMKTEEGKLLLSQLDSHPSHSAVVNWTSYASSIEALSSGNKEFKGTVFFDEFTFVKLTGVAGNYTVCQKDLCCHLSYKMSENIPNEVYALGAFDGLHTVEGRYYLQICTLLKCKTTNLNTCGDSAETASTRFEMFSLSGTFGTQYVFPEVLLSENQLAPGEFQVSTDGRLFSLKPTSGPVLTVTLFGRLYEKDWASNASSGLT
Protocol: Description of Biological Properties Vanin-1 Enzymatic Assay:
The test compounds are dissolved in 100% DMSO at a concentration of 10 mM and in a first step diluted in DMSO to a concentration of 5 mM, followed by serial dilution steps in 100% DMSO. Dilution factor and number of dilution steps may vary according to needs. Typically 8 different concentrations by 1:5 dilutions are prepared, a further intermediate dilutions of the substances is carried out with assay buffer resulting in 1% final DMSO concentration in the assay.
0.1 nM of FLAG-tagged Vanin-1 (AA 22-493, T26I, produced internally) and test compounds are incubated at room temperature for 20 minutes in assay buffer (1 mM DTT, 0.0025% Brij-35, 50 mM HEPES, pH7.5). D-Pantethine (Sigma, Cat #P2125-5G) in assay buffer is added (final concentration 3 μM) and incubated for additional 30 minutes at room temperature. Total assay volume typically is 40 μl but might be adjusted according to needs. Reaction is stopped by adding equal volume of stop solution as the reaction mixture to reach 100 nM HD-pantothenic acid (as an internal standard) and 1% TFA. Assay plates are centrifuged for 2 minutes and the formation of pantothenic acid is detected by RapidFire Mass Spectrometry (mobile phase A: 0.1% formic acid and 0.01% trifluoroacetic acid in water; mobile phase B: 47.5% acetonitrile, 47.5% methanol, 0.1% formic acid and 0.01% trifluoroacetic acid in water) using a C18, 12 μL cartridge (Agilent Cat #G9205A).
The values given in Table I result from measurements of one or more samples. In case of multiple measurements the geometric mean values are given.

Pantetheinase (vanin) = experiment: Human Whole Blood assay (vanin activity by pantothenic acid formation); assay type: cell-based; details: pantethine substrate, 5 min reaction at room temperature, geometric mean in case of multiple measurements, read-out: HWB IC50
Protocol: Human Whole Blood assay: Pantetheinase (vanin) converts panteheine into pantothenic acid and cysteamine. Accordingly, in the described protocol vanin activity is quantified by formation of pantothenic acid after pantetheine supplementation via pantethine. The assay is applicable to identify vanin inhibitors. Compound stocks are dissolved in DMSO at 10 mM. Further dilutions are performed in RPMI 1640 medium (Gibco, #A-10491-01) and final concentrations in the assay are 0.032 nM-500 nM.
Human blood is drawn into a blood bag (1% heparin, 50 I.E./mL). Blood is aliquoted into cavities of 96-deep-well plates at 290 μL and mixed with 10 μL compound solution or vehicle (30 sec at 1400 rpm on a shaker). Equilibration follows at room temperature, 250 rpm and for 30 min. The assay is started by adding 10 μL of substrate solution (2 μM pantethine in 1 mM DTT, 0.0025% Brij-35, 50 mM HEPES, pH7.5) to each well, except for some blank wells which receive […] substrate buffer (1 mM DTT, 0.0025% Brij-35, 50 mM HEPES, pH7.5) only. Samples are thoroughly shaken (30 sec, 1400 rpm) and reaction is allowed to take place at room temperature, 250 rpm and for 5 min. The reaction is stopped by addition of a vanin tool inhibitor in excess (BI-1 total conc. 10 μM). Centrifugation of the plate follows at 4° C., 665 G for 10 min. Then the blood plasma samples (100 μL) are transferred into another 96-deep-well plate and proteins are precipitated (5 min on ice) by adding 100 μL of ice cold precipitation solution (1 μM labelled pantothenic acid (di-β-alanine-13C6,15N2 calcium salt, Sigma, #705837) in acetonitrile).
Afterwards the plate is centrifuged (4° C., 3220 G, 10 min) and supernatants (50 μL) are collected into another 96-deep-well plate and mixed (10 sec, 1400 rpm) with 150 μL ice cold formic acid (0.1%, Carl Roth GmbH+Co.KG, #CP03.1). The formation of pantothenic acid is detected by RapidFire Mass Spectrometry. A TripleQuad 6500+(ABSciex, Germany) is equipped with an LC-1290 system, a RapidFire autosampler (Agilent, Germany) and a C18 cartridge Type C 12 μL (Agilent Cat #G9526-80000). Mobile phase A is consisting of 0.09% formic acid and 0.01% trifluoroacetic acid in water and mobile phase B of 0.09% formic acid and 0.01% trifluoroacetic acid in acetonitrile/methanol/water=47.5/47.5/5.

SMILES | IC50 [1] | IC50 (Pantetheinase (vanin))
CC1(C#N)CCN(C(=O)c2ccc(NCc3ccnc4[nH]ccc34)nc2)C1 (stereo not drawn) [Example 1.19] | 0.3 nM | 3.78 nM
O=C(c1ccc(NCc2cnc3ccccn23)nc1)N1CC[C@H](N2CCCC2=O)C1 [Example 1.15] | 0.19 nM | 4.82 nM
CN(C(=O)C1CC1)[C@H]1CCN(C(=O)c2ccc(NCc3csc4ccccc34)nc2)C1 [Example 5.39] | 0.29 nM | 26.2 nM
CC(=O)N(C)[C@H]1CCN(C(=O)c2ccc(NCc3cccc4[nH]ccc34)nc2)C1 [Example 5.6] | 0.13 nM | 2.1 nM
CC(=O)N(C)[C@H]1CCN(C(=O)c2ccc(NCc3ncn4ccccc34)nc2)C1 [Example 5.19] | 0.75 nM | 3.69 nM
CC(=O)N(C)[C@H]1CCN(C(=O)c2ccc(N[C@@H](C)c3ccc4nc[nH]c4c3)nc2)C1 [Example 5.36] | 0.22 nM | 4.86 nM
O=C(c1ccc(NCc2cnc3ccccn23)nc1)N1CC[C@H](N2CCOC2=O)C1 [Example 1.1, 3-[(3S)-1-{6-[({Imidazo[1,2-a]pyridin-3-yl}methyl)amino]pyridine-3-carbonyl}pyrrolidin-3-yl]-1,3-oxazolidin-2-one] | 0.24 nM | 3.49 nM
CC(=O)N(C)[C@H]1CCN(C(=O)c2ccc(N[C@@H](C)c3cccc4[nH]ncc34)nc2)C1 [Example 7.1, N-[(3S)-1-(6-{[(1S)-1-(1H-Indazol-4-yl)ethyl]amino}pyridine-3-carbonyl)pyrrolidin-3-yl]-N-methylacetamide] | 0.33 nM | 7.66 nM
CC(=O)N(C)[C@H]1CCN(C(=O)c2ccc(NCc3c(Cl)nc4sccn34)nc2)C1 [Example 5.4] | 0.12 nM | 1.59 nM
CC(=O)N(C)[C@H]1CCN(C(=O)c2ccc(NCc3cnc4ccccn34)nc2)C1 [Example 5.12] | 0.23 nM | 3.91 nM
CC(=O)N(C)[C@H]1CCN(C(=O)c2ccc(NCc3ccnc4[nH]ccc34)nc2)C1 [Example 5.13] | 0.28 nM | 1.71 nM
CC(=O)N(C)[C@H]1CCN(C(=O)c2ccc(NCc3cnn4cccnc34)nc2)C1 [Example 5.29] | 2.74 nM | –
C[C@H](Nc1ccc(C(=O)N2CC[C@H](N(C)C(=O)C3(C#N)CC3)C2)cn1)c1cnc2[nH]ccc2c1 [Example 1.3] | 0.1 nM | 3.05 nM
CC(=O)N(C)[C@H]1CCN(C(=O)c2ccc(N[C@@H](C)c3cccc4ccccc34)nc2)C1 [Example 2.2] | 0.14 nM | –
CC1(C#N)CCN(C(=O)c2ccc(NCc3csc4ccccc34)nc2)C1 (stereo not drawn) [Example 9.2] | 1.14 nM | –
CN(C(=O)C1CCC1)[C@H]1CCN(C(=O)c2ccc(NCc3csc4ccccc34)nc2)C1 [Example 9.1, N-[(3S)-1-(6-{[(1-Benzothiophen-3-yl)methyl]amino}pyridine-3-carbonyl)pyrrolidin-3-yl]-N-methylcyclobutanecarboxamide] | 0.26 nM | –
O=C(c1ccc(NCc2csc3ccccc23)nc1)N1CC[C@H](N2CCCC2=O)C1 [Example 8.2] | 0.21 nM | –
CC(=O)N(C)[C@H]1CCN(C(=O)c2ccc(NCc3ccc4nc(N)[nH]c4c3)nc2)C1 [Example 5.18] | 0.69 nM | –
CC(=O)N(C)[C@H]1CCN(C(=O)c2ccc(NCc3cc(C)cc4[nH]ncc34)nc2)C1 [Example 6.1, N-Methyl-N-[(3S)-1-(6-{[(6-methyl-1H-indazol-4-yl)methyl]amino}pyridine-3-carbonyl)pyrrolidin-3-yl]acetamide] | 0.14 nM | –
CC(=O)N(C)[C@H]1CCN(C(=O)c2ccc(NCc3cccc4c3ccn4C)nc2)C1 [Example 2.5] | 0.67 nM | –

SMILES | IC50 [1] | IC50 (Pantetheinase (vanin))
CC(=O)N(C)[C@H]1CCN(C(=O)c2ccc(NCc3cc4ccccc4s3)nc2)C1 [Example 2.6] | 2.05 nM | –
C[C@H](Nc1ccc(C(=O)N2CC[C@H](N(C)C(=O)C3(C)CCC3)C2)cn1)c1cnc2[nH]ccc2c1 [Example 1.8] | 0.14 nM | –
CC(=O)N(C)[C@H]1CCN(C(=O)c2ccc(NCc3ccc4onc(N)c4c3)nc2)C1 [Example 5.34] | 9.43 nM | –
O=C(c1ccc(NCc2csc3ccccc23)nc1)N1CC[C@H](N2CCOC2=O)C1 [Example 8.1, 3-[(3S)-1-(6-{[(1-Benzothiophen-3-yl)methyl]amino}pyridine-3-carbonyl)pyrrolidin-3-yl]-13-oxazolidin-2-one] | 0.2 nM | –
CC(=O)N(C)[C@H]1CCN(C(=O)c2ccc(N[C@H](C)c3ccc4c(cnn4C)c3)nc2)C1 [Example 5.32] | 9.06 nM | –
CC(=O)N(C)[C@H]1CCN(C(=O)c2ccc(NCc3cc(Br)cc4[nH]ncc34)nc2)C1 [Example 5.5] | 0.13 nM | –
CC(=O)N(C)[C@H]1CCN(C(=O)c2ccc(NCc3cnc4ccccc4c3)nc2)C1 [Example 5.11] | 0.21 nM | –
C[C@H](Nc1ccc(C(=O)N2CC[C@H](N(C)C(=O)C3(C)CCC3)C2)cn1)c1cnc2[nH]ccc2c1 [Example 1.11] | 0.2 nM | –
CC(=O)N(C)[C@H]1CCN(C(=O)c2ccc(N[C@@H](C)c3ccc4c(cnn4C)c3)nc2)C1 [Example 5.37] | 0.24 nM | –
CC(=O)N(C)[C@H]1CCN(C(=O)c2ccc(NCc3csc4ccc(Cl)cc34)nc2)C1 [Example 2.3] | 0.21 nM | –
CC(=O)N(C)[C@H]1CCN(C(=O)c2ccc(NCc3ccc4ncccc4c3)nc2)C1 [Example 5.26] | 1.62 nM | –
CC(=O)N(C)[C@H]1CCN(C(=O)c2ccc(NCc3cccc4cccnc34)nc2)C1 [Example 5.30] | 3.02 nM | –
CC(=O)N(C)[C@H]1CCN(C(=O)c2ccc(NCc3cc4ccccc4[nH]3)nc2)C1 [Example 5.33] | 9.33 nM | –
CC(=O)N(C)[C@H]1CCN(C(=O)c2ccc(N[C@H](C)c3cccc4nn(C)cc34)nc2)C1 [Example 5.27] | 2.25 nM | –
CC(=O)N(C)[C@H]1CCN(C(=O)c2ccc(NCc3nc4ccccc4s3)nc2)C1 [Example 5.31] | 4.62 nM | –
CC(=O)N(C)[C@H]1CCN(C(=O)c2ccc(N[C@H](C)c3cccc4c3cnn4C)nc2)C1 [Example 5.25] | 1.43 nM | –
CC(=O)N(C)[C@H]1CCN(C(=O)c2ccc(NCc3ccc4[nH]ccc4c3)nc2)C1 [Example 5.17] | 0.64 nM | –
CC(=O)N(C)[C@H]1CCN(C(=O)c2ccc(NCc3n[nH]c4c3CCCC4)nc2)C1 [Example 5.28] | 2.65 nM | –
CC(=O)N(C)[C@H]1CCN(C(=O)c2ccc(N[C@@H](C)c3nc4cc(Cl)c(F)cc4[nH]3)nc2)C1 [Example 5.20] | 0.76 nM | –
